Source: patent publication US11759433B2, “Compositions and methods for regulating the endocannabinoid system” (Sytheon Ltd, priority 2019, dated 2023)
Read-outs that look alike come from different tables or passages of the source.

Tests used:
Cortisol = Cortisol output in RHE-conditioned medium; assay type: cell-based, Human; conditions: for Cortisol (% Control): 2 mg/cm^2 on RHE; for Cortisol (% Control) / Cortisol std MTT (% Control): 48 h; for Cortisol std MTT (% Control): standardised to MTT tissue viability
Method: (§1) A series of tests were conducted to assess the impact of the compositions according to the present teaching on the stress biomarkers cortisol and interleukin-8 8). The compounds and compositions to be evaluated were stored at room temperature prior to use and, for use, were solubilized in caprylic acid/caprylic triglycerides. The tests were conducted using reconstituted human epithelium-conditioned medium. Reconstituted Human Epidermis tissues were obtained from Zen-Bio (Research Triangle, NC; order #51500) and were stored o/n at 4° C. The following day the tissues were transferred to 6 well plates and allowed to equilibrate for 4 h in the medium provided by the manufacturer (ZenSkin RHE Assay Medium, lot #031620). Thereafter the medium was change with fresh medium and the Test Materials, as identified in Table 4, applied to the tissue samples in an amount of 2 mg/cm^2 with a positive displacement pipette and spread evenly on top of the tissues. The solvent was used as the negative control.
Cortisol—After 48 h of incubation, the cortisol output in the cell culture conditioned medium was measured with the Cortisol Parameter Assay Kit from RnD (Minneapolis, MN cat. #KGE008B), while tissue viability was assessed by the MTT technique, using the manufacturer's protocol and reagents.
(§2) In both studies the statistical significance was assessed with two-tail Student test. Deviations of ≥15% as compared to water control with p values below 0.05 were considered statistically significant.

IL-8 = IL-8 output in RHE-conditioned medium (sandwich ELISA); assay type: cell-based, Human; conditions: for IL-8 (% Control): 2 mg/cm^2 on RHE; for Effect on level of IL-8, in words: tissue culture conditioned medium
Method: as §1
IL-8—Similarly, interleukin-8 (IL-8) output in the cell culture conditioned medium was measured by sandwich ELISA using antibody pair from Invitrogen (ThermoFisher, kit cat. #CHC1303) and antibody pair from BioLegend (cat. #501101 and #501201), respectively. All colorimetric measurements were performed using Molecular Devices microplate reader MAX190 and SoftMax3.1.2PRO software.
as §2

[1] = target: T1, Fatty Acid Amide Hydrolase (FAAH) (Homo sapiens, UniProt O00519); experiment: FAAH inhibitor screening assay (Cayman kit); assay type: biochemical
T1 construct: purchased Cayman 10005196
T1 sequence (O00519 1-579): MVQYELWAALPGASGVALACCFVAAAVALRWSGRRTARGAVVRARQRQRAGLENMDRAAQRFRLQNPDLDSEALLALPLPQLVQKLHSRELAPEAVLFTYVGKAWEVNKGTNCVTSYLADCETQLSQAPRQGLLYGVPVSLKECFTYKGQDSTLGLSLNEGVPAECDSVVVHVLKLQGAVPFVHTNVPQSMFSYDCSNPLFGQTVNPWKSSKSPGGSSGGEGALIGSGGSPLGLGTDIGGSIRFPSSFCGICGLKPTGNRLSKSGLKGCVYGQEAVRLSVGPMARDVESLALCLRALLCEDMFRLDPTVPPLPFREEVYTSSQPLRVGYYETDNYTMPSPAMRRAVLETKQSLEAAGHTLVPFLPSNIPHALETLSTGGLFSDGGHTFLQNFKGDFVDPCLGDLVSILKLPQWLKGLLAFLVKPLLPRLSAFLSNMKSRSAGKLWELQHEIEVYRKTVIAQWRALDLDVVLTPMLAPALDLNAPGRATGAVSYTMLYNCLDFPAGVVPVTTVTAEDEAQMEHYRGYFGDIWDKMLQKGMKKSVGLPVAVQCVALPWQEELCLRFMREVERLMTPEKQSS
Method: A 0.01 gram of sample of each of the indicated Test Samples identified in Table 3 was dissolved in 1 mL DMSO to make stock solution. […] The analysis was done following FAAH inhibitor screening assay kit (Cayman cat #10005196) protocol.

[2] = target: T2, Fatty Acid Binding Protein 5 (FABP5) (Homo sapiens, UniProt Q01469); experiment: Fatty Acid Binding Protein 5 inhibitory activity (FABP-5 ELISA kit)
T2 construct: purchased Raybiotech 268-10276-1
T2 sequence (Q01469 whole entry): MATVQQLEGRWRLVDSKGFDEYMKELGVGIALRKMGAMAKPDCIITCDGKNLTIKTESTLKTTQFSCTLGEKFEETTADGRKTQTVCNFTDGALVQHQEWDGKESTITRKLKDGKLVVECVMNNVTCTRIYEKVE
Method: 0.1 gram of sample of each of the indicated Test Samples identified in Table 3 was dissolved in 1 mL DMSO and diluted with Diluent C from the FABP-5 ELISA Kit (Raybiotech #ELH-FABP5) to a make stock solution of 800 μg/ml. […] 50 μl of sample and 50 μl of 200 ng/ml of FABP-5 (Raybiotech #268-10276-1) was added per well for the analysis. The analysis was done following protocol of the aforementioned kit.

[3] = target: T3, Monoacyl Glycerol Lipase (MAGL) (Homo sapiens, UniProt Q99685); experiment: Monoacyl Glycerol Lipase (MAGL) inhibitory activity; assay type: biochemical
T3 construct: purchased Cayman 10007812
T3 sequence (Q99685 1-303): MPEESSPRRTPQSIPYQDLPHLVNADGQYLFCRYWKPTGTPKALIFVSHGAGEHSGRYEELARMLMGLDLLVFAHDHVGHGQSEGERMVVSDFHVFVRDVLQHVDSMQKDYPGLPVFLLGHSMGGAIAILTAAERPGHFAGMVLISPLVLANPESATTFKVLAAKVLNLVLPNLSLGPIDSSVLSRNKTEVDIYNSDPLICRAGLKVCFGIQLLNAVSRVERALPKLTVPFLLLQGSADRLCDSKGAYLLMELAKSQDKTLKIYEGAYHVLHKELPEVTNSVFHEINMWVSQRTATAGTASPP
Method: A 0.1 gram of sample of each of the indicated Test Samples identified in Table 3 was dissolved in 1 mL DMSO to make stock solution. […] Final concentration in well: 10 μL of sample, 5.6 mU MAGL (Cayman cat. #10007812), and 23.6 μM 2Arachidonoyl Glycerol (Cayman cat. #62160). This study was done by following the protocol described by J L Blankman et al. (Blankmann et., A comprehensive profile of brain enzymes that hydrolyze the endocannabinoid 2-Arachidonyl glycerol, Chem & Biol, 14(12); 1347-1356, 2007).

[4] = read-out: FAAH IC50 (converted)
[5] = read-out: MAGL IC50 (converted)

IC50 [1, 4] [µM] | IC50 [2] [µM] | IC50 [3, 5] [µM] | SMILES | Cortisol (% Control) (Cortisol; 0.1%) | Cortisol std MTT (% Control) (Cortisol; 0.1%) | Cortisol (% Control) (Cortisol; 0.25%) | Cortisol std MTT (% Control) (Cortisol; 0.25%) | Cortisol (% Control) (Cortisol; 0.5%) | Cortisol std MTT (% Control) (Cortisol; 0.5%) | IL-8 (% Control) (IL-8; 0.1%) | IL-8 (% Control) (IL-8; 0.25%) | IL-8 (% Control) (IL-8; 0.5%) | Effect on level of IL-8, in words (IL-8) | Cortisol (% Control) (Cortisol; 1%) | Cortisol std MTT (% Control) (Cortisol; 1%) | Effect on level of cortisol, in words (Cortisol; higher levels) | Effect on level of cortisol, in words (Cortisol; low levels) | IL-8 (% Control) (IL-8; 1%) | IC50 ([1]; FAAH IC50) [µM] | IC50 [3] [µM]
6.71 | 449 | 183 | C=C[C@@](C)(/C=C/c1ccc(O)cc1)CCC=C(C)C [Bakuchiol] | 51 | 56 | 64 | 87 | 54 | 79 | 92 | 92 | 86 | marginal effect in reducing |  |  |  |  |  |  | 
 |  |  | C=C(C)[C@@H]1CCC(C)=C[C@H]1c1c(O)cc(CCCCC)cc1O [Cannabidiol 99, Cannabidiol] | 72 | 82 |  |  | 84 | 95 | 103 |  | 107 | no effect or marginally increased | 134 | 174 | increased the cortisol level | modest decrease in cortisol | 108 | 99.5 | 13100
3.6 |  |  | CCCCC/C=C\C/C=C\CCCCCCCC(=O)OCC [Ethyl Linoleate 98, Ethyl linoleate] |  |  |  |  |  |  |  |  |  |  |  |  |  |  |  |  | 
9.81 | 1490 | 7710 | CCCCC/C=C\C/C=C\CCCCCCCC(=O)OCC [Ethyl Linoleate (Synovea ® EL), Ethyl linoleate] |  |  |  |  |  |  |  |  |  |  |  |  |  |  |  |  | 
